Results from ChEMBL document CHEMBL3991601, “The target landscape of clinical kinase drugs” (Science, 2017).
Activity calls are given as the source filed them. Cut-off read from the data, not from the text of the source, for most assays here: actives have a measured Kd and inactives only a lower limit.

Columns and labels:
[1] = biological target: T1, Ribosyldihydronicotinamide dehydrogenase [quinone] (Homo sapiens, UniProt P16083)
T1 sequence (P16083 whole entry): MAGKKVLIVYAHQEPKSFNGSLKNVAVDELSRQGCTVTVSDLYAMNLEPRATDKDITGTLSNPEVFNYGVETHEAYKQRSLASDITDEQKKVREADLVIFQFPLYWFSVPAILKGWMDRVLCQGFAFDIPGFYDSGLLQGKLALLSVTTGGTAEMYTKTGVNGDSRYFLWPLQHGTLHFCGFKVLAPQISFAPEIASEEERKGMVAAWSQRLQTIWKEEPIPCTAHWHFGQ

[2] = biological target: Protein kinase C delta type (Homo sapiens, UniProt Q05655)
[3] = biological target: ATP-dependent RNA helicase DDX3X (Homo sapiens, UniProt O00571)
[4] = biological target: T2, Mitogen-activated protein kinase kinase kinase 5 (Homo sapiens, UniProt Q99683)
T2 sequence (Q99683 whole entry): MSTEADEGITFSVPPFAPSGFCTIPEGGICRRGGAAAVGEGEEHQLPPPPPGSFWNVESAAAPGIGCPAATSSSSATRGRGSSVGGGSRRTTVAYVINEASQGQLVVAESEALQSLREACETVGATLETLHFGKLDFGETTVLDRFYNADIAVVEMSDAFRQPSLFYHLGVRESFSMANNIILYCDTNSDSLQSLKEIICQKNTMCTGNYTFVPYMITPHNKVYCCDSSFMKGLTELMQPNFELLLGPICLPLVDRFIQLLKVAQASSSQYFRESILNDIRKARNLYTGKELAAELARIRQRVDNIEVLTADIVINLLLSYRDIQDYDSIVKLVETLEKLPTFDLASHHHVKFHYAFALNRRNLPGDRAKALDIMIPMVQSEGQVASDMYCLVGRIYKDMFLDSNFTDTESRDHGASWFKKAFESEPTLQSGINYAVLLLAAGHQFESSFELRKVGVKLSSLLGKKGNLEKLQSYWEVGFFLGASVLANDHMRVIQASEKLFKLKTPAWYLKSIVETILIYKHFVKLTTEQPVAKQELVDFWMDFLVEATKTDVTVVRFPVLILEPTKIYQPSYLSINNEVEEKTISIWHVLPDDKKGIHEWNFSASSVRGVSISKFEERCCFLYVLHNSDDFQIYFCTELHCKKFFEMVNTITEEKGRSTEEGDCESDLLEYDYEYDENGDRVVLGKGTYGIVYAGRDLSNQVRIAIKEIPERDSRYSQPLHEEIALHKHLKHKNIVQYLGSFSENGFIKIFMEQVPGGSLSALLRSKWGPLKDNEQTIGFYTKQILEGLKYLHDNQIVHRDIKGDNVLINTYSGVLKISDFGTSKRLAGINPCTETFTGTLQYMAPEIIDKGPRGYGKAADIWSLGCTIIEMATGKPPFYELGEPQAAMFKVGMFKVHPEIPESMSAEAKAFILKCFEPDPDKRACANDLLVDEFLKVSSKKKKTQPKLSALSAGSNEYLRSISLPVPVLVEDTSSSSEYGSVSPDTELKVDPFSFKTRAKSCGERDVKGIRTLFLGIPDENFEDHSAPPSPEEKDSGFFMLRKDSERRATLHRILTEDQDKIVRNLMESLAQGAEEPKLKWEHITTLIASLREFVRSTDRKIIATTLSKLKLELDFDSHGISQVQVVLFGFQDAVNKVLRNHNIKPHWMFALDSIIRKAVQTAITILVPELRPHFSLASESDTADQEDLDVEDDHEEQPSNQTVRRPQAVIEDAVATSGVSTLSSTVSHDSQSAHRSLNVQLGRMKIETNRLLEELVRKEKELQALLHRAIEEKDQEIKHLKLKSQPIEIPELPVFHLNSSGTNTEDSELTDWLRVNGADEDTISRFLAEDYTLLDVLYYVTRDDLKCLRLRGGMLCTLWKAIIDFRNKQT

[5] = biological target: T3, Serine/threonine-protein kinase TAO1 (Homo sapiens, UniProt Q7L7X3)
T3 sequence (Q7L7X3 whole entry): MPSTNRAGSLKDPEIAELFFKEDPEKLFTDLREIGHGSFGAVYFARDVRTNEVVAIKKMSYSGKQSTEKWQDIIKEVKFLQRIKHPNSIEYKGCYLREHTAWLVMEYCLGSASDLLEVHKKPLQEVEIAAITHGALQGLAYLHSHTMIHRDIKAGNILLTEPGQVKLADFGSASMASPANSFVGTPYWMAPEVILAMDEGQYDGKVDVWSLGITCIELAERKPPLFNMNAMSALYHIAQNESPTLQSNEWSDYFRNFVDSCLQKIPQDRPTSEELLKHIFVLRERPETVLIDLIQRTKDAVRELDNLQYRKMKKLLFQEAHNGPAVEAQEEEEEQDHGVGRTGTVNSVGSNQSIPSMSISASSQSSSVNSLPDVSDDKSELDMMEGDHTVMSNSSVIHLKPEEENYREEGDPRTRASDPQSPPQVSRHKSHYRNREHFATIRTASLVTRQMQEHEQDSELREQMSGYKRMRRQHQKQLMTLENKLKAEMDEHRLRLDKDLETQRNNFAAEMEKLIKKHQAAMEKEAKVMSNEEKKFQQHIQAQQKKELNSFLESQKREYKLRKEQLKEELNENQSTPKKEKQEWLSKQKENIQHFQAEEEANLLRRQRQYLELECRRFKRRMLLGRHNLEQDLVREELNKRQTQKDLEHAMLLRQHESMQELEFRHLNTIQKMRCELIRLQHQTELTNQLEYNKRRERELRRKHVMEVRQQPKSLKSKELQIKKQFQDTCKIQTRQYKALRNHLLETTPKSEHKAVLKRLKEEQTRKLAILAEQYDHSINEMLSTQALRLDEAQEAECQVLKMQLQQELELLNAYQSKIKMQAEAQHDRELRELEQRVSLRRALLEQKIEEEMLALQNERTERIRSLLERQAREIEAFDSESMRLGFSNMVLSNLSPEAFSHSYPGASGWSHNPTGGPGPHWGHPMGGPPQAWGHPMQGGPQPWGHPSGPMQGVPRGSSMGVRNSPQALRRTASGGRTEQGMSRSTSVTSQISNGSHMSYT

[6] = biological target: Casein kinase I isoform epsilon (Homo sapiens, UniProt P49674)
[7] = biological target: Cyclin-dependent kinase 6 (Homo sapiens, UniProt Q00534)
[8] = biological target: Cyclin-dependent kinase 13 (Homo sapiens, UniProt Q14004)
[9] = biological target: Protein-tyrosine kinase 6 (Homo sapiens, UniProt Q13882)
Note: in the data inactive means no Kd found up to 30 µM.

Chain of Cyclin-dependent kinase 13 (Q14004 whole entry): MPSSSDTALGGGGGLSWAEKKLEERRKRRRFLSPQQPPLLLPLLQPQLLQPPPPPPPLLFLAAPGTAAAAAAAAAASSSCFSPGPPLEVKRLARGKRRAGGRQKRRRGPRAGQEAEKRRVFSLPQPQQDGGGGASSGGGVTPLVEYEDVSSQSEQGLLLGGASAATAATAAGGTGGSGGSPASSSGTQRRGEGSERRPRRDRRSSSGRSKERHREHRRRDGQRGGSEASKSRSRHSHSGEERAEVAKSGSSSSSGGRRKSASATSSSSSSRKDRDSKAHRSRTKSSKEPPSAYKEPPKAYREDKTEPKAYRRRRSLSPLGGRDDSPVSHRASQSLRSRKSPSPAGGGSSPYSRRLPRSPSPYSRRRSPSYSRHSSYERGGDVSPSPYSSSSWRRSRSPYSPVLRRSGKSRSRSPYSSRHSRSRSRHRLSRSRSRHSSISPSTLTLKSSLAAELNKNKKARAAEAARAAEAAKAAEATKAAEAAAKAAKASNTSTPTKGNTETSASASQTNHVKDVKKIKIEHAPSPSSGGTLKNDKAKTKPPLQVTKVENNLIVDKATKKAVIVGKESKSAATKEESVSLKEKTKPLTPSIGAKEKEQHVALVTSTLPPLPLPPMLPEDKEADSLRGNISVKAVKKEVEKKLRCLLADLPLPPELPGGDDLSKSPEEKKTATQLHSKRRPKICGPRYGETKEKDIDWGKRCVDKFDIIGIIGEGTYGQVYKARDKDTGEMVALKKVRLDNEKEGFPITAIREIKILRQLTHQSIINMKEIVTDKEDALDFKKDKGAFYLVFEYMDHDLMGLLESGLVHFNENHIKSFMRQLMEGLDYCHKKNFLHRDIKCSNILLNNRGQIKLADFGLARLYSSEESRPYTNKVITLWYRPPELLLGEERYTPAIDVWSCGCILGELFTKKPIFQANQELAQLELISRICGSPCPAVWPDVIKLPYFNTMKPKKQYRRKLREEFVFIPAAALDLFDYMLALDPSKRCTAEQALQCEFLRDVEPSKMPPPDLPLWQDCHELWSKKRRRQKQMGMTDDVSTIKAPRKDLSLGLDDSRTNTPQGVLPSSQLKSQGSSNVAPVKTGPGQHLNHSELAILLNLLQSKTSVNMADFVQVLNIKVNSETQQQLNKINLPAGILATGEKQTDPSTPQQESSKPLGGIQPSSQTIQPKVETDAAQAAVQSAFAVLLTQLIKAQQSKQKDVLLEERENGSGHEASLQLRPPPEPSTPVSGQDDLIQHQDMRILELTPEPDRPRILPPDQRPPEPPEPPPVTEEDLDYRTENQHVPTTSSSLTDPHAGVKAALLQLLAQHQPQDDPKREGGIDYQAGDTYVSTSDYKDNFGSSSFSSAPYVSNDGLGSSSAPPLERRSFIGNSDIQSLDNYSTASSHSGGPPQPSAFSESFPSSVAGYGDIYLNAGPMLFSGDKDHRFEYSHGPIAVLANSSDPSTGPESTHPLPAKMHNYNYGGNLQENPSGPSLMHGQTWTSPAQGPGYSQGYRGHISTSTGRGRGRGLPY
Chain of Casein kinase I isoform epsilon (P49674 whole entry, canonical isoform): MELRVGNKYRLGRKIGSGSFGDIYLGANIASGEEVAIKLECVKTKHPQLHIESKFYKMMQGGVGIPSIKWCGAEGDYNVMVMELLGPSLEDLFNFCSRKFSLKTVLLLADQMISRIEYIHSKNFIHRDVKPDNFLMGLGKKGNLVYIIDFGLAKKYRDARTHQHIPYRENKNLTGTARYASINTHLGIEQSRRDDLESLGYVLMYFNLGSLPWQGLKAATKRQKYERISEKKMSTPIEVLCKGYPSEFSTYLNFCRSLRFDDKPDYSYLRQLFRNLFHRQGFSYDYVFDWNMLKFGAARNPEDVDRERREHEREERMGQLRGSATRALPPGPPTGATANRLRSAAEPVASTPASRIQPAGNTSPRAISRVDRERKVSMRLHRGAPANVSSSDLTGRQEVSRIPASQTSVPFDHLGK
Chain of Protein-tyrosine kinase 6 (Q13882 whole entry): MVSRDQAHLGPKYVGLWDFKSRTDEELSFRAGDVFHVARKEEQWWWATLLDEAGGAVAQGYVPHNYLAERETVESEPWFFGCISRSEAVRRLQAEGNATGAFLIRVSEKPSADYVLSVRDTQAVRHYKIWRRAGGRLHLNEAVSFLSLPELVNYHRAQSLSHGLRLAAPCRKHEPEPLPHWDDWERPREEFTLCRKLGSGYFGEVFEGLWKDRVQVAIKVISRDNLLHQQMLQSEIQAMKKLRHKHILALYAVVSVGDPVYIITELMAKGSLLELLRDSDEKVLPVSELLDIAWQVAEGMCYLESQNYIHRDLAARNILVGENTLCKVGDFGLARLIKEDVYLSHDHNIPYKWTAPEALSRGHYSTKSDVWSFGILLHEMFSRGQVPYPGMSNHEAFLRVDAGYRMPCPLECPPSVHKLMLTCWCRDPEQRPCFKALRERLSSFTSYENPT
Chain of ATP-dependent RNA helicase DDX3X (O00571 whole entry): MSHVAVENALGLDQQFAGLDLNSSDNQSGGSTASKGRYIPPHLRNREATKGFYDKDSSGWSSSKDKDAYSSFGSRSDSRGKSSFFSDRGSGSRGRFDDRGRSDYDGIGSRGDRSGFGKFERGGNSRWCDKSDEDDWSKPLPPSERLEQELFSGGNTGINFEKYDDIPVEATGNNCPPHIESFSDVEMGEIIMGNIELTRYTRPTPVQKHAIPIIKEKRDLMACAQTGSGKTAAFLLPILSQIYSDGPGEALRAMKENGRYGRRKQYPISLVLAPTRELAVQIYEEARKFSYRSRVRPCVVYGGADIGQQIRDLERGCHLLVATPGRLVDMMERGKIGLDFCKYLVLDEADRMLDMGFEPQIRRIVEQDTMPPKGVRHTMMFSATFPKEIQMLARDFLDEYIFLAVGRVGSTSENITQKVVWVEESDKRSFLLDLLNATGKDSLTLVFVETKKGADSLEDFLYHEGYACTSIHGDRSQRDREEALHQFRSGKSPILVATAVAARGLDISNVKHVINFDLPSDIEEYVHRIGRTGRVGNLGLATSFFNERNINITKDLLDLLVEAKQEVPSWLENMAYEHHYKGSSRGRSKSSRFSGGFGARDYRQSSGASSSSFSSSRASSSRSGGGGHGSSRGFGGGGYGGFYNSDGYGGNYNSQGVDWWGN
Chain of Protein kinase C delta type (Q05655 whole entry): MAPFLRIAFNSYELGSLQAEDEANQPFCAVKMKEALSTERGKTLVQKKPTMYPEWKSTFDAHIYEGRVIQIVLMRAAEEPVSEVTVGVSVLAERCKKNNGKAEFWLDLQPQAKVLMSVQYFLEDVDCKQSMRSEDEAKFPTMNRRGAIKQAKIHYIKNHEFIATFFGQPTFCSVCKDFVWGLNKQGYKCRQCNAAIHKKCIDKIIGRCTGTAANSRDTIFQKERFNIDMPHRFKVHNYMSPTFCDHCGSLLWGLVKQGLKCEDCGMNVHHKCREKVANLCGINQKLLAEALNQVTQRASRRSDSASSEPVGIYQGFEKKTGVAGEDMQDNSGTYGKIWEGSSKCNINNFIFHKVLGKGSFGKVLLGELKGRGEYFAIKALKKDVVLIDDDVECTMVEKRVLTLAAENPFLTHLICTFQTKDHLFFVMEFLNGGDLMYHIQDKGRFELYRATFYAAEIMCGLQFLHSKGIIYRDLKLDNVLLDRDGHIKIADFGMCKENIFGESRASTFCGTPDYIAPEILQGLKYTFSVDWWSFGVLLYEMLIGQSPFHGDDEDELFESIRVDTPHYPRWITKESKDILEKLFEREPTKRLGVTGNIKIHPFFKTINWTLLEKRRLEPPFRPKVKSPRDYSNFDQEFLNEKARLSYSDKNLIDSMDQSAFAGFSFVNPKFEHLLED
Chain of Cyclin-dependent kinase 6 (Q00534 whole entry): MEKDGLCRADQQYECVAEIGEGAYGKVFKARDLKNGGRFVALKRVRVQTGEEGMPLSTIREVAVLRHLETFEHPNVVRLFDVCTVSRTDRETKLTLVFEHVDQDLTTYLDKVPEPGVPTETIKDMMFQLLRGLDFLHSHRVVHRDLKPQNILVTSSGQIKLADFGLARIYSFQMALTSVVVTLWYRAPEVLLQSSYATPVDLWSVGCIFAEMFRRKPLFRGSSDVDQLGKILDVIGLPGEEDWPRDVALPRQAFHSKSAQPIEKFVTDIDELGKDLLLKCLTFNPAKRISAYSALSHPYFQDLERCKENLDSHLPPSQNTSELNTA

| Kd [1] | Kd [2] | Kd [3] | Kd [4] | Kd [5] | Kd [6] | Kd [7] | Kd [8] | Kd [9] | SMILES |
| --- | --- | --- | --- | --- | --- | --- | --- | --- | --- |
| > 30 µM (inactive) | > 30 µM (inactive) | > 30 µM (inactive) | > 30 µM (inactive) | > 30 µM (inactive) | > 30 µM (inactive) | > 30 µM (inactive) | > 30 µM (inactive) | > 30 µM (inactive) | NC(=O)c1ccc(N(C(N)=O)c2c(F)cccc2F)nc1-c1ccc(F)cc1F [VX-702] |
| > 30 µM (inactive) | > 30 µM (inactive) | > 30 µM (inactive) | > 30 µM (inactive) | > 30 µM (inactive) | > 30 µM (inactive) | > 30 µM (inactive) | > 30 µM (inactive) | > 30 µM (inactive) | COc1cc2ncnc(Nc3ccc(O)cc3)c2cc1OC [WHI-P131] |
